The values below come from patent US9051240B2, “Substituted 2-[2-(phenyl) ethylamino] alkaneamide derivatives and their use as sodium and/or calcium channel modulators” (Newron Pharmaceuticals S.P.A., priority 2007, dated 2015).

Structures are written as SMILES. Where two headings read alike, the source gives them in different places.

Assay [1] concerns mice. Nature of the assay: Acetic acid-induced visceral pain model in mice. In kind it is in vivo. The conditions noted are these: 20 mg/Kg p.o. From the text:
The acetic acid-induced visceral pain model is widely used in experimental research to produce abdominal contractions (Korster R et al., Fed. Pro. (1959) 18: 412; Friese N et al., Life Sci. (1997) 60: 625-634) The model consists of intraperitoneal (i.p.) injection of an irritant that induces a syndrome called ‘writhing’, which consists of contractions of the abdomen, twisting and turning of the trunk, arching of the back and extension of the hind limbs.
Animals and procedure: Male CD1 mice weighing 25-33 g were used. Each treated group was allowed 30 min to habituate to laboratory surroundings in individual polypropylene transparent boxes. The visceral pain was scored by counting the number of writhes for 10 min after i.p. injection of 0.6% acetic acid (10 ml/kg of body weight). The number of writhes after acetic acid administration were evaluated. Both complete body stretching (complete writhe) or partial stretching with a clear contracting of the abdomen (partial writhe) were counted.
Separate groups of 10 mice each were administered orally with vehicle (10 ml/kg), or different doses of the tested compound dissolved in vehicle (10 ml/kg), 5 min before acetic acid injection. Data are expressed as the mean number of writhes during the 10 min observation period.

Assay [2] has as its system Na+ currents in ND7/23 cells (TTX-s). Description: Patch clamp evaluation of Na+ currents blockade in ND7/23 cell line. In kind it is cell-based, rat. As for the experimental part: ND7/23 (ECACC No 92090903 from SIGMA), is a hybrid cell line derived from a neonatal rat DRG fused with the mouse neuroblastoma N18Tg2 (Wood et al., Proc. Biol. Sci., 1990 September, 241(1302), 187-194).
The molecular identity of the channels responsible for the TTX-s conductance is unknown but it is presumed that TTX-s conductance arises from the activity of a mixed population of sodium channels.
Cells are routinously maintained in DMEM with 10% of FBS, 4 mM glutamine, 1 mM sodium piruvate. The day before the patch clamp experiment cells are detached and seeded at 100,000 cells/polylysine-coated 35 mm Petri dish.
Experiments on ND7/23 cells were carried out using standard whole cell patch clamp methods (Hamill et al., Pfugers Arch., 1981 August, 391(12), 85-100), as described in previous section.
To test the effect of compounds on sodium currents in ND7/23 cells, holding membrane potential was set at −90 mV, then a two step protocol was used to determine the voltage dependence of the block. Sodium currents were activated by a 30 ms step pulse to 0 mV (test pulse) from a 2000 ms preconditioning potential of −110 mV (resting condition) and a potential of ˜−70 mV (half maximal steady-state condition).
Tonic block of resting and depolarized currents at a given drug concentration was calculated as the difference between the peak Na^+ current in the control external bath solution and peak currents with the test substance divided by control peak.
Drug concentration-inhibition curves were obtained by plotting tonic blocks in the resting and depolarized condition, versus drug concentrations. Dose-response curves were fitted to the tonic block data, according to the logistic equation: y=A2+(A1−A2)/[1+(x/IC50)p]. A1 and A2 are fixed values of 0 and 1 corresponding to 0 and 100% current inhibition, x is the drug concentration, IC50 is the drug concentration resulting in 50% current inhibition and p is the corresponding slope factor.
The apparent affinity of drug for the inactivated state (Ki) was calculated according to the equation 1/Kdep=h/Kr+(1−h)/Ki where Kr is the affinity of drug for the resting/closed state; Kdep is the IC50 in the depolarized condition, h and (1−h) are the fractions of channels present at the rest. and dep. potentials, respectively.
Control bath solution contained (mM): NaCl 80, Choline HCl 40, CaCl2 1.3, MgCl2 2, KCl 2, CdCl2 0.4, NiCl2 0.3, TEACl 20, Hepes 10, Glucose 10.
Internal pipette solution consisted of (mM): CsF 65, CsCl 65, NaCl 10, CaCl2 1.3, MgCl2 2, Hepes 10, EGTA 10, MgATP 1.
Compounds were dissolved as stock solutions (20 mM) in DMSO. They were diluted to the final concentrations in the external solution.

On to `CCCCOc1cccc(CCNCC(=O)N(C)C)c1.Cl` [2-[2-(3-Butoxyphenyl)-ethylamino]-N,N-dimethylacetamide hydrochloride], for which the “number of writhes, significance vs. vehicle” value in assay [1] was “p<0.01 vs. vehicle”.

What is called IC50 is the concentration that gives 50% inhibition. Turning to `C[C@H](NCc1ccc(OCc2ccccc2F)cc1)C(N)=O` [ralfinamide, (S)-(+)-2-[4-(2-fluorobenzyloxy)-benzylamino]-propanamide, reference compound], the Ki in assay [2] (calculated from Kr and Kdep, read-out: Ki (apparent affinity for the inactivated state)) was 8.3 µM. For the same compound, the IC50 in assay [2] (read-out: IC50 depolarized, preconditioning potential ~-70 mV) stood at 15 µM; in assay [2] (read-out: IC50 resting (Kr), preconditioning potential -110 mV), 149 µM.
